From patent US5175320A, “Fluorinated bile acid derivatives, processes for the preparation thereof and pharmaceutical compositions containing them” (Giuliani S.p.A., priority 1989, dated 1992)
Values after ≈ are worked out from the molar mass of the structure shown. “Also recorded” adds a separate entry of the source.

Columns and labels:
[1] = detergency, critical micellar concentration; type: physicochemical; settings: for CMC: Table 1
Method: (§1) 6-FCDCA has been submitted to a series of physico-chemical determinations following a previously described protocol. Particularly, the lypophilicity, detergency, water solubility and pKa were measured.

[2] = pKa; type: physicochemical
Text: 6-FCDCA has been submitted to a series of physico-chemical determinations following a previously described protocol.

[3] = test system: human stools; type: in vitro ADME
[4] = water solubility (of the protonated forms); type: physicochemical
Method: as §1, with “measured. | rK' = relative values Water solubility of the protonated forms Data on water solubility are reported on the enclosed table 1.” for “measured.”

[5] = lypophilicity by C/18 reverse phase HPLC; type: physicochemical; settings: for rK' C-18: rK' = relative values, C-18 reverse phase HPLC
Method: as §1

Row | Compound | critical micellar concentration [1] | CMC [1] | pKa [2] | protection of the 7-hydroxy group from oxidation and 7-dehydroxylation [3] | stability to intestinal bacteria compared with CDCA [3] | water solubility compared with CDCA [4] | solubility ([4]; water) | lypophilicity compared with natural analogues ([5]; C/18 reverse phase HPLC, result in words) | rK' C-18 [5] | water solubility [4] | S (water solubility) ([4]; protonated forms, Table 1)
1 | C[C@H](CCC(=O)O)[C@H]1CC[C@H]2[C@@H]3[C@H](O)C(F)[C@H]4C[C@H](O)CC[C@]4(C)[C@H]3CC[C@]12C (stereo partly drawn) [Example 6-FCDCA, 3α,7α-Dihydroxy-6-fluoro-5α-cholan-24-oic acid] | 10 mmol/L | 10 mmol/1 | 5 | efficaciously protects the hydroxy group in 7-position to oxidation and 7-dehydroxylation | more stable to intestinal bacteria | slightly higher than that of CDCA | 80 µM (≈ 32.8 µg/mL) | lower when compared with CDCA; also recorded: intermediate between CDCA and UDCA; also recorded: less lypohilic than CDCA | 0.6 |  | 
2 | C[C@H](CCC(=O)O)[C@H]1CC[C@H]2[C@@H]3[C@H](O)C[C@@H]4C[C@H](O)CC[C@]4(C)[C@H]3CC[C@]12C [CDCA, chenodeoxycholic, reference compound] |  | 9 mmol/1 |  |  |  |  |  |  | 0.89 | 30 µmol | 30 µM
3 | C[C@H](CCC(=O)O)[C@H]1CC[C@H]2[C@@H]3[C@@H](O)C[C@@H]4C[C@H](O)CC[C@]4(C)[C@H]3CC[C@]12C [UDCA, ursodeoxycholic, reference compound] |  |  |  |  |  |  |  |  | 0.4 |  | 
